Columns and labels:
Assay in all cases: relative viability (nuclei count vs DMSO), 5 days (fraction); higher = more cells survive
Imatinib + Vorinostat = compound: Cc1ccc(NC(=O)c2ccc(CN3CCN(C)CC3)cc2)cc1Nc1nccc(-c2cccnc2)n1 [Imatinib] + O=C(CCCCCCC(=O)Nc1ccccc1)NO [Vorinostat] (partner 1 µM)
Outline: (§1)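 Each reported value is a median over duplicate plates. It expresses relative viability: treated-well nuclei count divided by vehicle-well nuclei count. Lung cancer cell lines in 1536-well plates were dosed by pin tool a day after seeding, alone with one drug or with a fixed anchor-drug dose plus five library-drug doses (not always all listed) in √10 steps, and nuclei were counted after 5 days.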

Imatinib + Trametinib = compound: Cc1ccc(NC(=O)c2ccc(CN3CCN(C)CC3)cc2)cc1Nc1nccc(-c2cccnc2)n1 [Imatinib] + CC(=O)Nc1cccc(-n2c(=O)n(C3CC3)c(=O)c3c(Nc4ccc(I)cc4F)n(C)c(=O)c(C)c32)c1 [Trametinib] (partner 0.02 µM)
Outline: as §1

Imatinib + Phenformin = compound: Cc1ccc(NC(=O)c2ccc(CN3CCN(C)CC3)cc2)cc1Nc1nccc(-c2cccnc2)n1 [Imatinib] + N=C(N)NC(=N)NCCc1ccccc1 [Phenformin] (partner 250 µM)
Outline: as §1

Imatinib + Foretinib = compound: Cc1ccc(NC(=O)c2ccc(CN3CCN(C)CC3)cc2)cc1Nc1nccc(-c2cccnc2)n1 [Imatinib] + COc1cc2c(Oc3ccc(NC(=O)C4(C(=O)Nc5ccc(F)cc5)CC4)cc3F)ccnc2cc1OCCCN1CCOCC1 [Foretinib] (partner 0.25 µM)
Outline: as §1

Row | Cell Line | relative viability (Imatinib + Vorinostat; first compound 0.02 µM) | relative viability (Imatinib + Vorinostat; first compound 0.2 µM) | relative viability (Imatinib + Vorinostat; first compound 0.6325 µM) | relative viability (Imatinib + Vorinostat; first compound 2 µM) | relative viability (Imatinib + Trametinib; first compound 0.02 µM) | relative viability (Imatinib + Trametinib; first compound 0.2 µM) | relative viability (Imatinib + Trametinib; first compound 0.6325 µM) | relative viability (Imatinib + Trametinib; first compound 2 µM) | relative viability (Imatinib + Phenformin; first compound 0.02 µM) | relative viability (Imatinib + Phenformin; first compound 0.06325 µM) | relative viability (Imatinib + Phenformin; first compound 0.2 µM) | relative viability (Imatinib + Phenformin; first compound 0.6325 µM) | relative viability (Imatinib + Phenformin; first compound 2 µM) | relative viability (Imatinib + Foretinib; first compound 0.02 µM) | relative viability (Imatinib + Foretinib; first compound 0.06325 µM) | relative viability (Imatinib + Foretinib; first compound 0.2 µM) | relative viability (Imatinib + Foretinib; first compound 0.6325 µM) | relative viability (Imatinib + Foretinib; first compound 2 µM) | relative viability (Imatinib + Vorinostat; first compound 0.06325 µM) | relative viability (Imatinib + Trametinib; first compound 0.06325 µM)
1 | NCI-H1734 | 0.92 | 0.832 | 0.856 | 0.717 | 0.739 | 0.689 | 0.825 | 0.71 | 0.382 | 0.389 | 0.431 | 0.368 | 0.357 | 1.06 | 1.2 | 0.939 | 0.776 | 0.87 | – | –
2 | NCI-H1755 | 0.875 | 0.649 | 0.742 | 0.653 | 0.793 | 0.839 | 0.782 | 0.725 | 0.643 | 0.674 | 0.596 | 0.568 | 0.536 | 0.917 | 1.02 | 0.98 | 0.948 | – | 0.835 | 0.811
3 | NCI-H1793 | 0.703 | 0.94 | 0.716 | 0.565 | 0.472 | 0.582 | 0.404 | 0.368 | 0.388 | – | 0.375 | 0.284 | 0.257 | 0.827 | – | 0.919 | 0.682 | 0.715 | – | –
4 | NCI-H1915 | 0.613 | 0.516 | 0.461 | 0.471 | 0.328 | 0.293 | 0.304 | 0.312 | 0.38 | – | 0.387 | 0.377 | 0.371 | 1.17 | – | 1.25 | 1.05 | 1.08 | – | –
5 | NCI-H1944 | 0.605 | 0.536 | 0.512 | 0.439 | 0.408 | 0.449 | 0.436 | 0.402 | 0.185 | 0.2 | 0.188 | 0.199 | 0.162 | 0.923 | 0.946 | 0.964 | 0.851 | 0.852 | 0.573 | 0.376
6 | NCI-H1975 | 0.698 | 0.73 | 0.686 | 0.686 | 0.364 | 0.375 | 0.41 | 0.326 | 0.446 | 0.43 | 0.407 | 0.425 | 0.357 | 1.09 | 0.986 | 0.879 | 0.954 | 0.871 | 0.741 | 0.273
7 | NCI-H1993 | 0.608 | 0.737 | 0.688 | 0.743 | 0.45 | 0.622 | 0.447 | 0.584 | 0.56 | 0.506 | 0.519 | 0.485 | 0.52 | 0.817 | 0.886 | 0.783 | 0.705 | 0.756 | 0.581 | 0.482
8 | NCI-H2009 | 0.805 | 0.554 | 0.794 | 0.758 | 0.319 | 0.255 | 0.296 | 0.246 | 0.518 | – | 0.485 | 0.445 | 0.383 | 1.29 | – | 1.27 | 1.25 | 1.23 | 0.646 | 0.214
9 | NCI-H2023 | 0.846 | 0.615 | – | 0.614 | 0.729 | 0.564 | – | 0.618 | 0.503 | 0.391 | 0.356 | 0.341 | 0.342 | 0.87 | – | 0.873 | – | 0.776 | 0.376 | 0.6
10 | NCI-H2085 | 0.755 | 0.772 | 0.743 | 0.768 | 0.49 | 0.535 | 0.58 | 0.513 | 0.867 | 0.694 | 0.748 | 0.752 | 0.704 | – | 0.941 | 1.02 | 1.01 | 0.972 | 0.683 | 0.515
11 | NCI-H2087 | 0.806 | 0.787 | 0.716 | – | 0.179 | 0.221 | 0.189 | – | 0.478 | – | 0.478 | 0.548 | 0.535 | 1.2 | – | – | 1.05 | 0.976 | – | –
12 | NCI-H2126 | 0.702 | 0.789 | 0.724 | 0.818 | 0.525 | 0.565 | 0.57 | 0.574 | 0.514 | – | 0.57 | – | 0.501 | 1.36 | 0.958 | 1.31 | 1.02 | – | 0.582 | 0.43
13 | NCI-H2170 | 0.972 | 0.834 | 0.775 | 0.792 | 1 | 1.02 | 0.972 | 0.965 | 0.448 | 0.414 | 0.406 | 0.361 | 0.301 | 1.01 | 1.03 | 0.996 | 1.02 | 1 | 0.845 | 1.06
14 | NCI-H2228 | 0.677 | 0.724 | 0.602 | 1 | 0.663 | 0.467 | 0.507 | 0.605 | 0.335 | – | 0.268 | 0.277 | 0.272 | 0.905 | – | 0.891 | 0.886 | 0.899 | 0.692 | 0.338
15 | NCI-H2347 | 0.568 | 0.585 | 0.552 | 0.569 | 0.35 | 0.309 | 0.285 | 0.273 | 0.381 | 0.376 | 0.386 | 0.307 | 0.381 | – | – | 0.905 | 0.703 | 1.1 | – | –
16 | NCI-H2405 | 1.06 | 1.18 | 0.942 | 0.961 | 0.623 | 0.637 | 0.516 | 0.634 | 0.366 | – | 0.341 | 0.329 | 0.333 | 1.03 | – | 1.05 | 0.986 | 1.02 | – | 0.538
17 | NCI-H3122 | 1.13 | 1.08 | – | 1.02 | 0.25 | 0.236 | 0.253 | 0.216 | 0.394 | 0.38 | 0.366 | – | 0.357 | 0.879 | 1.12 | – | 0.887 | 0.984 | 1.01 | 0.292
18 | PC-3 [JPC-3] | 0.882 | – | 0.899 | 0.727 | 0.719 | – | 0.724 | 0.621 | 0.474 | – | 0.485 | 0.454 | 0.414 | 1.12 | – | 1.09 | 1.05 | 0.942 | – | –
